The results in this text go back to ChEMBL document CHEMBL1909046, “DrugMatrix in vitro pharmacology data”.

For one assay, the target named is T1, Thromboxane-A synthase (Homo sapiens, UniProt P24557).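 Note: enzyme inhibition assay with PGH2 supplied as substrate; in other assays of this panel Not Active means under 50% inhibition at 10 µM.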
T1 sequence (P24557 whole entry): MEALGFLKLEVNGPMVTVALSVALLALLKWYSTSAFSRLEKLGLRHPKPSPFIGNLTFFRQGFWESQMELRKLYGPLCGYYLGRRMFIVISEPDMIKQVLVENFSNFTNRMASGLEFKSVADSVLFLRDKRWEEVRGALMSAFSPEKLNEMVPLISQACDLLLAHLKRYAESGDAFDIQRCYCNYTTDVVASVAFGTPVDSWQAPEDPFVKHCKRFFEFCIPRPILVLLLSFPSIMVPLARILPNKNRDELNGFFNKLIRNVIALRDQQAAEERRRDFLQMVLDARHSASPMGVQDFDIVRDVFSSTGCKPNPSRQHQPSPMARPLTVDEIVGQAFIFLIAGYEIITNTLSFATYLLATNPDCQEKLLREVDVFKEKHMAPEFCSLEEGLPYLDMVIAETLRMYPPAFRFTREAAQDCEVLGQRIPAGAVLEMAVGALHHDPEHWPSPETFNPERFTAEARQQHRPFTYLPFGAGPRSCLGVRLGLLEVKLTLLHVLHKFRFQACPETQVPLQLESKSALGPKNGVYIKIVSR
The assay can be described thus: biochemical. The format is tissue-based, Platelet.

Assay [1] is described as follows: DRUGMATRIX: Purinergic P2X radioligand binding (ligand: [3H] alpha, beta-Methylene-ATP). The format is cell membranes, Oryctolagus cuniculus, New Zealand albino, Urinary bladder, Membrane. The following applies: Not Active = under 50% inhibition at 10 µM.
Assay [2] deals with T2, Alpha-1B adrenergic receptor (Rattus norvegicus, UniProt P15823).
T2 sequence (P15823 whole entry): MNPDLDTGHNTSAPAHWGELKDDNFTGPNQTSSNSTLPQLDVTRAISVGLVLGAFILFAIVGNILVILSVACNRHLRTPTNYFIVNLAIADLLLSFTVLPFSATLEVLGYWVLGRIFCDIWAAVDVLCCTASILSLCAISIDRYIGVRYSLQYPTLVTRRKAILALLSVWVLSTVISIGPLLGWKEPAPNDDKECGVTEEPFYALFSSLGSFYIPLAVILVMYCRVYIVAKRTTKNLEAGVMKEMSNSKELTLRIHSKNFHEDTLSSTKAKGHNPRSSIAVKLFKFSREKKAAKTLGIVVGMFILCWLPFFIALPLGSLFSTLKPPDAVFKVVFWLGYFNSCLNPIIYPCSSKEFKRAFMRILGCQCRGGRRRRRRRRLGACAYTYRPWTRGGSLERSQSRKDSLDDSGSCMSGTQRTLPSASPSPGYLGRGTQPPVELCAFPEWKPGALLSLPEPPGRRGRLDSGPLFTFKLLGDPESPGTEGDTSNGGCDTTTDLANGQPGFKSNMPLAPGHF
As to the kind of experiment: DRUGMATRIX: Alpha-1B adrenergic receptor radioligand binding (ligand: prazosin). It is filed as cell membranes, Wistar, Liver, Membrane. The following applies: Not Active = under 50% inhibition at 10 µM.

A short description of assay [3]: DRUGMATRIX: Phosphodiesterase PDE3 enzyme inhibition (substrate: [3H]cAMP + cAMP). The format is tissue-based, Homo sapiens. Particulars: platelet; Not Active = under 50% inhibition at 10 µM.
Assay [4] addresses T3, Alpha-2A adrenergic receptor (Homo sapiens, UniProt P08913).
T3 sequence (P08913 whole entry): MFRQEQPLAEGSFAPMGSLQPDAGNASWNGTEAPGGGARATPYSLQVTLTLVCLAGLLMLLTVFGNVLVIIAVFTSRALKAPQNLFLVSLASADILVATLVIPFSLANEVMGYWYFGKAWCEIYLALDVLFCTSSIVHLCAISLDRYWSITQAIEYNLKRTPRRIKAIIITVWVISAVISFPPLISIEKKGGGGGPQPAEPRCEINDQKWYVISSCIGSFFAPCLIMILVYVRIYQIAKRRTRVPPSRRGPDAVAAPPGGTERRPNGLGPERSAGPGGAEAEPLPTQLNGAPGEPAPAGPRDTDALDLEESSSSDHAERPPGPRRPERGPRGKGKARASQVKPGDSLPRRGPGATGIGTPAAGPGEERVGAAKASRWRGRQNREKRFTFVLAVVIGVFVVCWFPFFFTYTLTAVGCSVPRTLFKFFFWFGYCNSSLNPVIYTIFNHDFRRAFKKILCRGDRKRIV
The format is cell membranes, Sf9, Membrane. The following applies: for Ki: read-out: Ki.

Assay [5] concerns the target Beta-2 adrenergic receptor (Homo sapiens, UniProt P07550). The assay can be described thus: DRUGMATRIX: Adrenergic beta2 radioligand binding (ligand: [3H] CGP-12177). It is filed as cell membranes, Membrane. The following applies: cho; Not Active = under 50% inhibition at 10 µM.
For a further assay, the target named is Adenosine receptor A2a (Homo sapiens, UniProt P29274). The assay can be described thus: DRUGMATRIX: Adenosine A2A radioligand binding (ligand: […]). It is filed as cell membranes, Membrane. Particulars: hek293; Not Active = under 50% inhibition at 10 µM.
Adenosine receptor A2a, sequence (P29274 whole entry): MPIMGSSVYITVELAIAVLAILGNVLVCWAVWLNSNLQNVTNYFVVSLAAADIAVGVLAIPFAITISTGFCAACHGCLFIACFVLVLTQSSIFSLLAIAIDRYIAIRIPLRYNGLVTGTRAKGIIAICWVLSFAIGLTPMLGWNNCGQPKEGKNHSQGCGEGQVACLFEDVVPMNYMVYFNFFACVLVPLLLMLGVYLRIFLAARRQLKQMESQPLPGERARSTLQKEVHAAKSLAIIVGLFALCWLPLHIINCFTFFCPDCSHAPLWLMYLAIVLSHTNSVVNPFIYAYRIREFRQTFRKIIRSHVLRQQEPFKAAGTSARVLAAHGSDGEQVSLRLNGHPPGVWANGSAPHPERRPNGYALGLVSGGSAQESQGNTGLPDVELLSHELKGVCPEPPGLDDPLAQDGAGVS

For the compound `CN(C)CCCN1c2ccccc2Sc2ccccc21` [PROMAZINE], the IC50 (commonly the concentration that gives 50% inhibition) against Thromboxane-A synthase (platelet) is “Not Active”; in assay [1], “Not Active”; in assay [2] (read-out: IC50), 8.19 nM; in assay [3] it was “Not Active”; in assay [4] (read-out: IC50) it was 337 nM; in assay [5], “Not Active”. The IC50 entry at Adenosine receptor A2a was “Not Active”. The Ki – broadly, a measure of affinity in units of concentration, obtained from inhibition or displacement – was “Not Active” in assay [1], 4.53 nM in assay [2] (read-out: Ki), “Not Active” in assay [3] and 126 nM in assay [4].
Consider `C[C@](N)(Cc1ccc(O)c(O)c1)C(=O)O` [METHYLDOPA], for which the IC50 entry (against Thromboxane-A synthase (platelet); in assay [1]; in assay [2]; in assay [3]; in assay [4] (sf9); in assay [5]) was “Not Active” each time. Further, the IC50 result at Adenosine receptor A2a is on record as “Not Active”. Besides, the Ki entry in assay [1] and in assay [3] was “Not Active” in each case.
LEAD (II) ACETATE: the IC50 result at Thromboxane-A synthase (platelet) was “Not Active”; in assay [1], “Not Active”; in assay [2], “Not Active”; in assay [3] it was “Not Active”; in assay [4] (sf9, read-out: IC50), 3600 nM; in assay [5], “Not Active”. The IC50 result at Adenosine receptor A2a was “Not Active”. Also, the Ki result (on Thromboxane-A synthase (platelet); in assay [1]; in assay [2]; in assay [3]; in assay [5]; on Adenosine receptor A2a) was “Not Active” in each case.
On to `CC(O)CO` (stereo not drawn) [PROPYLENE GLYCOL], for which the IC50 result (against Thromboxane-A synthase (platelet); in assay [1]; in assay [2]; in assay [3]; in assay [4] (sf9); in assay [5]) was “Not Active” in each case. Further, the IC50 result on Adenosine receptor A2a was “Not Active”. Also, the Ki result in assay [1] and in assay [3] was “Not Active” each time.
In the case of `CCCC1O[C@@H]2C[C@H]3[C@@H]4CCC5=CC(=O)C=C[C@]5(C)[C@H]4[C@@H](O)C[C@]3(C)[C@]2(C(=O)CO)O1` (stereo partly drawn) [BUDESONIDE], the IC50 entry (on Thromboxane-A synthase (platelet); in assay [1]; in assay [2]; in assay [3]; in assay [4] (sf9); in assay [5]) was “Not Active” each time. The IC50 entry on Adenosine receptor A2a was “Not Active”. Further, the Ki entry in assay [1] and in assay [3] was “Not Active” each time.
On to `CC1Cc2ccccc2N1NC(=O)c1ccc(Cl)c(S(N)(=O)=O)c1` (stereo not drawn) [INDAPAMIDE], for which the IC50 result (at Thromboxane-A synthase (platelet); in assay [1]; in assay [2]; in assay [3]; in assay [4] (sf9); in assay [5]) was “Not Active” throughout. The IC50 entry on Adenosine receptor A2a is reported as “Not Active”. The Ki entry in assay [1] and in assay [3] was “Not Active” throughout.
For the compound `CCC1(c2ccc(N)cc2)CCC(=O)NC1=O` (stereo not drawn) [AMINOGLUTETHIMIDE], the IC50 result (against Thromboxane-A synthase (platelet); in assay [1]; in assay [2]; in assay [3]; in assay [4] (sf9); in assay [5]) was “Not Active” each time. Moreover, the IC50 entry on Adenosine receptor A2a is on record as “Not Active”. The Ki entry in assay [1] and in assay [3] was “Not Active” each time.
`Cc1ccccc1N1C(=O)c2cc(S(N)(=O)=O)c(Cl)cc2NC1C` (stereo not drawn) [METOLAZONE]: the IC50 result (at Thromboxane-A synthase (platelet); in assay [1]; in assay [2]; in assay [3]; in assay [4] (sf9); in assay [5]) was “Not Active” in each case. Further, the IC50 entry on Adenosine receptor A2a is recorded as “Not Active”. Besides, the Ki result in assay [1] and in assay [3] was “Not Active” each time.
For the compound `C1CCC(C(CC2CCCCN2)C2CCCCC2)CC1` (stereo not drawn) [PERHEXILINE], the IC50 result (against Thromboxane-A synthase (platelet); in assay [1]; in assay [2]; in assay [3]; in assay [4] (sf9); in assay [5]) was “Not Active” throughout. Also, the IC50 result at Adenosine receptor A2a is recorded as “Not Active”. The inhibition constant Ki result in assay [1] and in assay [3] was “Not Active” each time.
As to `N=C(N)NCCN1CCCCCCC1` [GUANETHIDINE], the IC50 result (against Thromboxane-A synthase (platelet); in assay [1]; in assay [2]; in assay [3]; in assay [4] (sf9); in assay [5]) was “Not Active” each time. Further, on Adenosine receptor A2a, the half-inhibitory concentration (IC50) entry is “Not Active”. The Ki entry in assay [1] and in assay [3] was “Not Active” each time.
Regarding `CC(C)CN(C[C@@H](O)[C@H](Cc1ccccc1)NC(=O)O[C@H]1CCOC1)S(=O)(=O)c1ccc(N)cc1`, the IC50 on Thromboxane-A synthase (read-out: IC50) is 6730 nM; in assay [1], “Not Active”; in assay [2] it was “Not Active”; in assay [3], “Not Active”; in assay [4] (sf9), “Not Active”; in assay [5], “Not Active”. Besides, at Adenosine receptor A2a, the IC50 result was “Not Active”. Also, the inhibitory constant (Ki) result in assay [1] and in assay [3] was “Not Active” in each case.
For `O=c1[nH]c(=O)n([C@H]2C[C@H](O)[C@@H](CO)O2)cc1I` [IDOXURIDINE], the IC50 result (against Thromboxane-A synthase (platelet); in assay [1]; in assay [2]; in assay [3]; in assay [4] (sf9); in assay [5]) was “Not Active” throughout. In addition, the IC50 result on Adenosine receptor A2a was “Not Active”. Also, the Ki result in assay [1] and in assay [3] was “Not Active” in each case.
Regarding `C[C@H](CCC(=O)O)[C@H]1CC[C@H]2[C@@H]3[C@H](O)C[C@@H]4C[C@H](O)CC[C@]4(C)[C@H]3C[C@H](O)[C@]12C` [CHOLIC ACID], the IC50 result (against Thromboxane-A synthase (platelet); in assay [1]; in assay [2]; in assay [3]; in assay [4] (sf9); in assay [5]) was “Not Active” each time. Further, the IC50 result on Adenosine receptor A2a was “Not Active”. The Ki entry in assay [1] and in assay [3] was “Not Active” throughout.
Regarding `O=C(CCCN1CC=C(n2c(=O)[nH]c3ccccc32)CC1)c1ccc(F)cc1` [DROPERIDOL], the IC50 result against Thromboxane-A synthase (platelet) was “Not Active”; in assay [1], “Not Active”; in assay [2] (read-out: IC50) it was 18 nM; in assay [3], “Not Active”; in assay [4] (read-out: IC50), 2960 nM; in assay [5] it was “Not Active”. The half-inhibitory concentration (IC50) entry on Adenosine receptor A2a was “Not Active”. For the same compound, the Ki entry in assay [1] is “Not Active”; in assay [2] (read-out: Ki), 9.78 nM; in assay [3], “Not Active”; in assay [4], 1110 nM.
As for `CC(=O)O[C@@]12CO[C@@H]1C[C@H](O)[C@@]1(C)C(=O)[C@H](O)C3=C(C)[C@@H](OC(=O)[C@H](O)[C@@H](NC(=O)OC(C)(C)C)c4ccccc4)C[C@@](O)([C@@H](OC(=O)c4ccccc4)[C@H]21)C3(C)C.O.O.O` [DOCETAXEL], the IC50 entry (at Thromboxane-A synthase (platelet); in assay [1]; in assay [2]; in assay [3]; in assay [4] (sf9); in assay [5]) was “Not Active” in each case. For the same compound, the IC50 result at Adenosine receptor A2a is given as “Not Active”. Besides, the Ki result in assay [1] and in assay [3] was “Not Active” each time.
